In general, Ki refers to a measure of affinity in units of concentration, obtained from inhibition or displacement. By IC50 is commonly meant the concentration at which inhibition is half-maximal. By inhibition is commonly meant the percentage by which the read-out fell short of the control.

The target in assay [1] is T1, recombinant human MAO-A (Homo sapiens, UniProt P21397).
T1 construct: purchased BD Biosciences (Bedford, MA, USA)
T1 sequence (P21397 1-527): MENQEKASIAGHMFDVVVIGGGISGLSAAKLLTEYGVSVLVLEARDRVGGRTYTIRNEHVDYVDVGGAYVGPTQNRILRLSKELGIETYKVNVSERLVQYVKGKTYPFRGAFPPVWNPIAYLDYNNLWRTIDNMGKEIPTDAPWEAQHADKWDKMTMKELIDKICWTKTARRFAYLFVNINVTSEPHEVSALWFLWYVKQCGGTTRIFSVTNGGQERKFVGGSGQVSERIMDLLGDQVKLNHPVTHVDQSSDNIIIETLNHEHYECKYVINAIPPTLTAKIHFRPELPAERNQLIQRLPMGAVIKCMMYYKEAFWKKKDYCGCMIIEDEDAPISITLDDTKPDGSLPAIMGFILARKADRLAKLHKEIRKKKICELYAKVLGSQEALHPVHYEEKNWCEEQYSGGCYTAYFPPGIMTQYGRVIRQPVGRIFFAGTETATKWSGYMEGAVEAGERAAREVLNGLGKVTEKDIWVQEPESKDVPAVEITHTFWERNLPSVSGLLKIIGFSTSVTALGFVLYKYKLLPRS
The assay is described as follows: Enzyme kinetics / inhibition mechanism, MAO-A (Ki, Lineweaver-Burk). The assay is classed as biochemical. Particulars: for Ki: kynuramine 1.90-500 μM, SigmaPlot enzyme module, mean ± S.D. of triplicate experiments, read-out: Monoamine Oxidase-A Ki. From the text:
(§1) Based on dose-response inhibition, two concentrations of the inhibitors were selected, one below and another above IC50 value for the inhibition. For each experiment, three sets of assays were done at varying concentrations of the substrate, one control without inhibitors and with two concentrations of the inhibitor.
(§2) Controls without inhibitor were also run simultaneously.

Assay [2] deals with T2, recombinant human MAO-B (Homo sapiens, UniProt P27338).
T2 construct: purchased BD Biosciences (Bedford, MA, USA)
T2 sequence (P27338 1-520): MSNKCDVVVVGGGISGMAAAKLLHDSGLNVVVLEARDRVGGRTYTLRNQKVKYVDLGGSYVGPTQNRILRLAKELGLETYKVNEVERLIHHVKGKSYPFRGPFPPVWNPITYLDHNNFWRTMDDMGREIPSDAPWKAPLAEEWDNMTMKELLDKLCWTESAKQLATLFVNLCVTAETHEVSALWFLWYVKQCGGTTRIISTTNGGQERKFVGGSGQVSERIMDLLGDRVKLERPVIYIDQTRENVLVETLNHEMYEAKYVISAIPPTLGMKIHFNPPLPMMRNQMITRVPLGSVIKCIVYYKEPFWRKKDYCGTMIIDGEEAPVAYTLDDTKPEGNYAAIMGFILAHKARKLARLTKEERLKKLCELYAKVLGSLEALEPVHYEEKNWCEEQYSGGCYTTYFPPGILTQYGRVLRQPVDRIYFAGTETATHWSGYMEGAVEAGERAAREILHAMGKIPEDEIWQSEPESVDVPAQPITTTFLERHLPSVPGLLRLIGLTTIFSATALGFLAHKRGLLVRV
The assay is described as follows: Time-dependent enzyme inhibition, MAO-B. The settings on record: pre-incubation 0-15 min; galangin 14.0 μM, apigenin 4.0 μM. It counts as biochemical. How it is done:
(§3) The controls without inhibitors were also run simultaneously. Activities of the enzymes were determined as described above and percentage of enzyme activity remaining was plotted against the preincubation time to determine time-dependent inhibition.
(§4) The controls without inhibitors were also run simultaneously. Activities of the enzymes were determined as described above and percentage of enzyme activity remaining was plotted against the preincubation time to determine time-dependent enzyme-inhibition.

Another assay relates to total MAO (A & B). Further details: method as in not given. The settings on record: mouse brain crude mitochondrial preparation; earlier study, ref not given; read-out: IC50 for inhibition of total MAO (A & B); cited from earlier work.
Assay [3] addresses T1, recombinant human MAO-A. Briefly: Reversibility of binding by enzyme-inhibitor complex dissociation dialysis, MAO-A. It counts as biochemical. Particulars: for MAO-A activity recovered after dialysis: overnight dialysis; for Nature of binding with MAO-A: dialysis dissociation. The method, then:
(§5) The characteristic binding of these inhibitors was also investigated by the enzyme-inhibitor complex dissociation by dialysis. High concentrations of the inhibitors were allowed to interact with the enzyme (MAO-A or B) for 20 min and the resulting enzyme-inhibitor complex mixtures were dialyzed overnight against buffer solutions. The catalytic activities of the enzymes were analyzed before and after the dialysis. The recombinant human MAO-A lost about 30% of the enzyme activity during overnight dialysis. […] After the dialysis about 70% and 80% activity of the enzyme was recovered from enzyme-galangin and enzyme-apigenin incubation mixtures. This observation indicated reversal of the enzyme activity due to formation of dissociable enzyme-inhibitor complex. […] The recombinant MAO-B lost about 30% of the enzyme activity during overnight dialysis.
(§6) Most of the inhibitors produce inhibition of the target enzyme through formation of an enzyme-inhibitor complex. Formation of the enzyme-inhibitor complex may be accelerated in presence of high concentration of the inhibitor. […] After 20 min incubation at 37 °C, the reaction was stopped by chilling the tubes on the ice bath. All the samples were dialyzed against potassium phosphate buffer (25 mM; pH 7.4) at 4 °C for 14 h (three buffer changes). Control enzyme (without inhibitor) was also run through the same procedure and activity of the enzyme was determined before and after the dialysis. Recovery of the catalytic activity enzyme after extensive dialysis of the enzyme-inhibitor mix provided the information about reversibility/irreversibility of binding of the inhibitor with the enzyme.

For assay [4], the target named is T2, recombinant human MAO-B. The assay is described as follows: Reversibility of binding by enzyme-inhibitor complex dissociation dialysis, MAO-B. It counts as biochemical. Particulars: for MAO-B activity recovery after dialysis: overnight dialysis. How it is done: as §5, §6
Assay [5] addresses T1, recombinant human MAO-A. The assay is described as follows: Time-dependent enzyme inhibition, MAO-A. It counts as biochemical. Particulars: pre-incubation 0-15 min; galangin 0.25 μM, apigenin 1.2 μM. The method, then: as §3, §4
Assay [6] has as its target T1, recombinant human MAO-A. Briefly: MAO-A inhibition, kynuramine deamination assay (IC50). It counts as biochemical. The settings on record: for IC50: pure compounds, 80 μM kynuramine, mean ± S.D. of triplicate, read-out: Monoamine Oxidase-A (IC50). The method, then: (§7) To investigate the effect of the selected constituents on MAO-A and MAO-B, the kynuramine deamination assay was adapted for 96-well plates as described earlier. […] For MAO-A, the substrate concentration of 80 μM kynuramine was chosen because the apparent KM value for substrate binding reported previously was approximately 40 μM [48]. […] Similarly, for MAO-B, substrate concentration of 50 μM kynuramine was chosen. The assay was performed with the addition of inhibitor. Inhibition was calculated as percent of product formation compared to the corresponding control (enzyme-substrate reaction) without the inhibitors. The reactions were carried out in 0.1 M potassium phosphate buffer at pH 7.4. Incubations mixtures contained 5 μg/mL of MAO-A (50 μL in buffer) and 10 μg/mL of MAO-B (50 μL in buffer). The inhibitor was dissolved in DMSO or in buffer (if not dissolved in DMSO). The total reaction volume was 200 μL yielding a final DMSO concentration of 1.0% in the reaction mixture. The reaction mixtures were pre-incubated for 10 min at 37 °C followed by the addition of MAO-A/MAO-B to initiate the reactions. Reactions were incubated for 20 min at 37 °C and were stopped immediately by the addition of 75 μL of 2N NaOH. The formation of 4-hydroxyquinoline was determined fluorometrically by SpectraMax M5 fluorescence plate reader (Molecular Devices, Sunnyvale, CA, USA) with an excitation and emission wavelength of 320 nm and 380 nm, respectively, using the Soft Max Pro program. Appropriate controls with the test compounds, fractions and extracts, where the enzyme or the substrate was added after stopping the reaction were setup simultaneously to check interference with the fluorescence measurements.
(§8) IC50 values for inhibition of MAO-A and B by the selected constituents were determined using fixed concentration of substrate and varying concentration of the inhibitor.

The target of assay [7] is T2, recombinant human MAO-B. Briefly: MAO-B inhibition, kynuramine deamination assay (IC50). It counts as biochemical. The settings on record: pure compounds; 50 μM kynuramine; mean ± S.D. of triplicate; read-out: Monoamine Oxidase-B (IC50). How it is done: as §7, §8
Assay [8] addresses T2, recombinant human MAO-B. The assay is described as follows: Enzyme kinetics / inhibition mechanism, MAO-B (Ki, Lineweaver-Burk). It counts as biochemical.
Text: as §1, §2

For the next assay, the system named is MAO-A. Further details: method as in not given. The settings on record: mouse brain crude mitochondrial preparation, iso-enzyme specific substrates; earlier study, ref not given; cited from earlier work.

SMILES strings stand for the structures. Like-named read-outs stand apart in the source and are kept apart here. A value given as a limit tells only on which side of the number the result lay.

On to `O=c1cc(-c2ccc(O)cc2)oc2cc(O)cc(O)c12` [Apigenin, apigenin], for which the “Monoamine Oxidase-A Type of Inhibition” value at recombinant human MAO-A [1] is given as “Competitive/Reversible”; at recombinant human MAO-A [1] (listed as apigenin), “competitive”. Moreover, the Ki is 125 ± 14 nM on recombinant human MAO-A [1] and 238 ± 24 nM on recombinant human MAO-B [8] (kynuramine 1.90-500 μM, SigmaPlot enzyme module, mean ± S.D. of triplicate experiments, read-out: Monoamine Oxidase-B Ki). Moreover, on recombinant human MAO-B [2], the “Time-dependence of binding/inhibition of MAO-B” value is “not dependent on pre-incubation time”. Further, the IC50 was 1000 nM with total MAO (A & B), 640 ± 110 nM at recombinant human MAO-A [6] and 1120 ± 270 nM at recombinant human MAO-B [7]. Besides, on recombinant human MAO-A [3] (20.0 μM inhibitor, 20 min incubation, read-out: Inhibition of catalytic activity of MAO-A before dialysis), the inhibition at 20 µM is above 88%. Besides, the “MAO-A activity recovered after dialysis” value on recombinant human MAO-A [3] (20.0 μM inhibitor) was around 80%. Further, on recombinant human MAO-A [3], the “Nature of binding with MAO-A” value is “reversible”. The inhibition at 25 µM at recombinant human MAO-B [4] (25.0 μM inhibitor, 20 min incubation, read-out: Inhibition of catalytic activity of MAO-B before dialysis) was around 90%. Moreover, the “MAO-B activity recovery after dialysis” value on recombinant human MAO-B [4] (25.0 μM inhibitor) is given as “almost fully recovered”. Also, the “Time-dependence of binding/inhibition of MAO-A” value at recombinant human MAO-A [5] is recorded as “not dependent on pre-incubation time”. Further, the “Monoamine Oxidase-B Type of Inhibition” value on recombinant human MAO-B [8] is reported as “Competitive/Reversible”; at recombinant human MAO-B [8] (listed as apigenin), “competitive”. The “Potency of MAO-A inhibition relative to MAO-B” value with MAO-A was “about 7.5 fold”.

For the compound `O=c1c(O)c(-c2ccc(O)c(O)c2)oc2cc(O)ccc12` [Fisetin hydrate, fisetin], the “Selectivity for MAO-A vs. MAO-B” value on recombinant human MAO-A [6] (MAO-A over MAO-B) is on record as above 47 fold. The IC50 is 2100 ± 90 nM at recombinant human MAO-A [6] and above 100000 nM on recombinant human MAO-B [7].

Regarding `O=c1c(O)c(-c2ccccc2)oc2cc(O)cc(O)c12` [Galangin, galangin], the “Monoamine Oxidase-A Type of Inhibition” value is given as “Competitive/Reversible” on recombinant human MAO-A [1] and “competitive” at recombinant human MAO-A [1] (listed as galangin). The Ki at recombinant human MAO-A [1] came out at 29 ± 4 nM. Besides, at recombinant human MAO-B [2], the “Time-dependence of binding/inhibition of MAO-B” value was “not dependent on pre-incubation time”. Further, the inhibition at 10 µM at recombinant human MAO-A [3] (10.0 μM inhibitor, 20 min incubation, read-out: Inhibition of catalytic activity of MAO-A before dialysis) was above 97%. The “MAO-A activity recovered after dialysis” value on recombinant human MAO-A [3] (10.0 μM inhibitor) is “about 70%”. The “Nature of binding with MAO-A” value at recombinant human MAO-A [3] is “reversible”. For the same compound, the “Inhibition of MAO-B enzyme activity before dialysis” value on recombinant human MAO-B [4] (50.0 μM inhibitor, 20 min incubation) was around 58.3. The “MAO-B activity recovery after dialysis” value on recombinant human MAO-B [4] (50.0 μM inhibitor) is “almost completely recovered”. Also, at recombinant human MAO-A [5], the “Time-dependence of binding/inhibition of MAO-A” value is given as “not dependent on pre-incubation time”. The IC50 at recombinant human MAO-A [6] stood at 130 ± 10 nM. Besides, the figures for the “Monoamine Oxidase-B Type of Inhibition” value at recombinant human MAO-B [8] and at recombinant human MAO-B [8] (listed as galangin) were “Competitive/Reversible” and “competitive”, respectively.

As to `COc1ccc2c(c1)[nH]c1c(C)nccc12` [Harmine, reference compound], the “Monoamine Oxidase-A Type of Inhibition” value on recombinant human MAO-A [1] is recorded as “Competitive/Reversible”. In addition, the IC50 on recombinant human MAO-B [7] stood at 27500 ± 2670 nM.

Consider `O=c1c(O)c(-c2ccc(O)cc2O)oc2cc(O)cc(O)c12` [Morin hydrate, morin], for which the “Selectivity for MAO-A vs. MAO-B” value on recombinant human MAO-A [6] (MAO-A over MAO-B) was determined as 9 fold. For the same compound, the IC50 was 5880 ± 150 nM at recombinant human MAO-A [6] and 49700 ± 560 nM at recombinant human MAO-B [7].

With `O=c1c(O)c(-c2ccc(O)c(O)c2)oc2cc(O)cc(O)c12` [Quercetin, quercetin], the “Selectivity for MAO-A vs. MAO-B” value at recombinant human MAO-A [6] is recorded as 15 fold. Further, the values for the IC50 at recombinant human MAO-A [6] and on recombinant human MAO-B [7] were 2440 ± 120 nM and 38700 ± 1200 nM, respectively.

Regarding `O=C1c2c(O)cc(O)cc2OC(c2ccc(O)c(O)c2)C1O` (stereo not shown) [Toxifolin, taxifolin], the IC50 at recombinant human MAO-A [6] came out at 65100 ± 1960 nM; at recombinant human MAO-B [7] it was 53800 ± 3910 nM.

Values taken from PMC6271006, “Monoamine Oxidase Inhibitory Constituents of Propolis: Kinetics and Mechanism of Inhibition of Recombinant Human MAO-A and MAO-B” (Molecules, 2014).
